Experimental data taken from ChEMBL document CHEMBL1201862, “PubChem BioAssay data set” (2004).
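Grown in 96-well plates, cells were treated for 48 hours with each compound at five concentrations. Insufficient inhibition: endpoint recorded as highest concentration tested. Here, GI50 denotes the concentration required for 50% inhibition of growth.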 Activity calls are given as the source filed them. Cut-off read from the data, not from the text of the source: active = GI50 up to about 1.1 µM and inactive = higher.

How the values were obtained:
Assay in all cases: DTP human tumour cell line panel, 48 h
DMS-114 = tested on: DMS-114
RXF 631 = tested on: RXF 631
KM-20L2 = tested on: KM-20L2
M19-MEL = tested on: M19-MEL
HOP-18 = tested on: HOP-18
MDA-MB-435 = tested on: MDA-MB-435
MDA-MB-231 = tested on: MDA-MB-231
PC-3 = tested on: PC-3
T47D = tested on: T47D

Cc1cn(C2CC(O)C(CO)C2C)c(=O)[nH]c1=O (configuration not stated)
GI50 (DMS-114): > 100 µM (inactive)
GI50 (RXF 631): > 100 µM (inactive)
GI50 (KM-20L2): > 100 µM (inactive)
GI50 (M19-MEL): > 100 µM (inactive)
GI50 (HOP-18): > 100 µM (inactive)

O[C@@]12Cc3c([nH]c4ccccc34)[C@@H]3Oc4cccc5c4[C@@]31CCN(CC1CC1)[C@@H]2C5
GI50 (MDA-MB-435): 15.7 µM (inactive)
GI50 (MDA-MB-231): 25.7 µM (inactive)
GI50 (PC-3): 17 µM (inactive)

CCNc1cnc2c(n1)c(=O)n(C)c(=O)n2C
GI50 (DMS-114): > 100 µM (inactive)
GI50 (KM-20L2): > 100 µM (inactive)
GI50 (M19-MEL): > 100 µM (inactive)

CN1CCN(P2(=S)Oc3ccc4ccccc4c3-c3c(ccc4ccccc34)O2)CC1
GI50 (DMS-114): 29.6 µM (inactive)
GI50 (KM-20L2): 22.8 µM (inactive)
GI50 (M19-MEL): 30.3 µM (inactive)
GI50 (HOP-18): > 65.2 µM (inactive)

c1ccc(CCn2cncn2)cc1
GI50 (DMS-114): > 100 µM (inactive)
GI50 (RXF 631): > 100 µM (inactive)
GI50 (KM-20L2): > 100 µM (inactive)
GI50 (M19-MEL): > 100 µM (inactive)

CC(C)=CCC/C(C)=C/CCC1(C)C=Cc2c(c3ccccc3oc2=O)O1 (configuration not stated)
GI50 (DMS-114): 15.8 µM (inactive)
GI50 (KM-20L2): 19.4 µM (inactive)
GI50 (M19-MEL): 17.3 µM (inactive)
GI50 (HOP-18): 17.3 µM (inactive)

CSc1ncc2c(n1)sc1c(=O)n(-c3ccccc3)cnc12
GI50 (T47D): > 100 µM (inactive)
GI50 (MDA-MB-435): > 100 µM (inactive)
GI50 (MDA-MB-231): > 100 µM (inactive)
GI50 (PC-3): > 100 µM (inactive)

O=C1N/C(=N/N=C/c2c[nH]c3ccccc23)N/C1=C\c1cccs1
GI50 (T47D): > 100 µM (inactive)
GI50 (MDA-MB-435): 43.3 µM (inactive)
GI50 (MDA-MB-231): 40.4 µM (inactive)
GI50 (PC-3): 16.1 µM (inactive)

CNS(=O)(=O)NN(C)S(=O)(=O)c1ccc(F)cc1
GI50 (DMS-114): > 100 µM (inactive)
GI50 (KM-20L2): > 100 µM (inactive)
GI50 (HOP-18): > 100 µM (inactive)

CCSc1nc(N/N=C/c2cccs2)c2cnn(CO)c2n1
GI50 (T47D): 3.8 µM (inactive)
GI50 (MDA-MB-435): 6.25 µM (inactive)
GI50 (MDA-MB-231): 18.3 µM (inactive)
GI50 (PC-3): 6.58 µM (inactive)

COc1cc2c(cc1OC)-c1cc3ccccc3c[n+]1CC2
GI50 (T47D): 42.6 µM (inactive)
GI50 (MDA-MB-435): > 100 µM (inactive)
GI50 (MDA-MB-231): > 100 µM (inactive)
GI50 (PC-3): > 100 µM (inactive)

CCCCCCCCCCCCCCCCCc1cc(Cl)nc(Cl)n1
GI50 (MDA-MB-435): > 100 µM (inactive)
GI50 (PC-3): > 100 µM (inactive)

Cc1cc(C)c(C2=NO[C@@H]3C(=O)N(c4ccc(Cc5ccc(N6C(=O)[C@H]7C(c8c(C)cc(C)cc8C)=NO[C@H]7C6=O)cc5)cc4)C(=O)[C@H]23)c(C)c1
GI50 (DMS-114): > 100 µM (inactive)
GI50 (KM-20L2): > 100 µM (inactive)
GI50 (M19-MEL): > 100 µM (inactive)
GI50 (HOP-18): > 100 µM (inactive)

N#Cc1ccc(-c2nc(C#N)c(N)o2)cc1
GI50 (T47D): > 10 µM (inactive)
GI50 (MDA-MB-435): > 10 µM (inactive)
GI50 (MDA-MB-231): > 10 µM (inactive)
GI50 (PC-3): > 10 µM (inactive)

CCOP(=O)(OCC)C1C(=O)O[C@H]2CCCC[C@@H]12 (some centres not stated)
GI50 (DMS-114): > 100 µM (inactive)
GI50 (KM-20L2): > 100 µM (inactive)
GI50 (M19-MEL): > 100 µM (inactive)
GI50 (HOP-18): 40.6 µM (inactive)

Cn1c(C(C#N)c2nc(Cl)ncc2Br)nc2ccccc21 (configuration not stated)
GI50 (T47D): > 100 µM (inactive)
GI50 (MDA-MB-435): > 100 µM (inactive)
GI50 (MDA-MB-231): > 100 µM (inactive)

CC1(C)OC2OC(COC(=O)c3ccc(C#N)cc3)C3OC(C)(C)OC3C2O1 (configuration not stated)
GI50 (MDA-MB-435): > 75 µM (inactive)
GI50 (MDA-MB-231): > 75 µM (inactive)
GI50 (PC-3): > 75 µM (inactive)

c1ccc(COc2nc3cc(C45CC6CC(CC(C6)C4)C5)ccc3[nH]2)cc1
GI50 (T47D): 2.83 µM (inactive)
GI50 (MDA-MB-435): 8.95 µM (inactive)
GI50 (MDA-MB-231): 21.8 µM (inactive)
GI50 (PC-3): 9.06 µM (inactive)

Cc1cc(C)n(-c2c(O)ccc(O)c2-n2nc(C)cc2C)n1
GI50 (DMS-114): > 100 µM (inactive)
GI50 (RXF 631): > 100 µM (inactive)
GI50 (KM-20L2): > 100 µM (inactive)
GI50 (M19-MEL): 71.6 µM (inactive)

CC1=C(C(=O)OCCc2ccc([N+](=O)[O-])cc2)C(c2cccc([N+](=O)[O-])c2)C(C(=O)OC(C)C)=C(C)N1 (configuration not stated)
GI50 (T47D): 2.94 µM (inactive)
GI50 (MDA-MB-435): 4.46 µM (inactive)
GI50 (PC-3): 2.26 µM (inactive)

Nc1ccc(Sc2nnc(N)s2)cc1
GI50 (T47D): > 100 µM (inactive)
GI50 (MDA-MB-435): > 100 µM (inactive)
GI50 (MDA-MB-231): > 100 µM (inactive)
GI50 (PC-3): > 100 µM (inactive)

CC1=NC=C(O)c2ccccc2O1
GI50 (DMS-114): > 100 µM (inactive)
GI50 (KM-20L2): > 100 µM (inactive)
GI50 (M19-MEL): > 100 µM (inactive)

CSc1cc(-c2cc3ccccc3o2)oc(=O)c1C#N
GI50 (DMS-114): 7.43 µM (inactive)
GI50 (RXF 631): 64.7 µM (inactive)
GI50 (KM-20L2): > 100 µM (inactive)
GI50 (HOP-18): 0.637 µM (active)

COC1=C2CC(C)CC(OC)C(O)C(C)/C=C(\C)C(OC(N)=O)C(OC)/C=C\C=C(/C)C(=O)NC(=C(/C=N/C(C)(C)C)C1=O)C2=O (configuration not stated)
GI50 (DMS-114): 0.466 µM (active)
GI50 (KM-20L2): 2.28 µM (inactive)
GI50 (M19-MEL): 4.45 µM (inactive)
GI50 (HOP-18): 6.85 µM (inactive)

CCN(CC)/[N+]([O-])=N/OC
GI50 (KM-20L2): > 100 µM (inactive)
GI50 (M19-MEL): > 100 µM (inactive)

CCOC(=O)/C=C/c1c(C)[nH]c(=O)[nH]c1=O
GI50 (DMS-114): 120 µM (inactive)
GI50 (KM-20L2): > 250 µM (inactive)
GI50 (M19-MEL): > 250 µM (inactive)
GI50 (HOP-18): > 250 µM (inactive)

CN(CCCNc1ccc2ncn3c4ccccc4c(=O)c1c23)CCCN1C(=O)c2cccc3cc([N+](=O)[O-])cc(c23)C1=O
GI50 (T47D): 1.18 µM (inactive)
GI50 (MDA-MB-435): 0.0219 µM (active)
GI50 (MDA-MB-231): 0.0201 µM (active)
GI50 (PC-3): 1.14 µM (inactive)

CC(C)(C)OC(=O)C1C(=O)NC(=O)CC1CC(OCc1ccccc1)C(COCc1ccccc1)OCc1ccccc1 (configuration not stated)
GI50 (MDA-MB-435): 5.3 µM (inactive)
GI50 (PC-3): 6.44 µM (inactive)

COC(=O)C1=C(C(=O)OC)C2(C)C=CC1O2 (configuration not stated)
GI50 (T47D): 3.44 µM (inactive)
GI50 (MDA-MB-435): 19.1 µM (inactive)
GI50 (MDA-MB-231): 16.6 µM (inactive)
GI50 (PC-3): 21.4 µM (inactive)

CNC1=C(C)C(=O)C2=C(C1=O)C(COC(N)=O)C1(OC)C3NC3CN21 (configuration not stated)
GI50 (T47D): 1.5 µM (inactive)
GI50 (MDA-MB-435): 1.6 µM (inactive)
GI50 (PC-3): 2.94 µM (inactive)

C/C(=N\NS(=O)(=O)c1ccccc1)c1ccccc1
GI50 (DMS-114): > 100 µM (inactive)
GI50 (KM-20L2): > 100 µM (inactive)
GI50 (HOP-18): > 100 µM (inactive)

Oc1ccc2ccccc2c1/N=N/c1cccc2ccccc12
GI50 (T47D): > 100 µM (inactive)
GI50 (MDA-MB-435): > 100 µM (inactive)
GI50 (MDA-MB-231): 49.9 µM (inactive)
GI50 (PC-3): > 100 µM (inactive)

CC1(C)O[C@@H](C[C@]2(C#N)C[C@H](CCl)OC(C)(C)O2)C[C@@H](C#N)O1
GI50 (DMS-114): > 100 µM (inactive)
GI50 (KM-20L2): > 100 µM (inactive)
GI50 (M19-MEL): > 100 µM (inactive)
GI50 (HOP-18): > 100 µM (inactive)

CCSc1[nH]c(/N=C(/NC(=O)c2ccccc2)NC(C)C)c(C(N)=O)c1C(N)=O
GI50 (T47D): > 10 µM (inactive)
GI50 (MDA-MB-435): > 10 µM (inactive)
GI50 (MDA-MB-231): > 10 µM (inactive)
GI50 (PC-3): > 10 µM (inactive)

O=C1Sc2ccccc2/C1=N/Nc1ccccc1[N+](=O)[O-]
GI50 (T47D): 10.2 µM (inactive)
GI50 (MDA-MB-435): > 100 µM (inactive)
GI50 (PC-3): > 100 µM (inactive)

C=C1C[C@@H]2C[C@@H](C)CC(O)[C@]2(CCCN)C1O (some centres not stated)
GI50 (DMS-114): > 100 µM (inactive)
GI50 (RXF 631): > 100 µM (inactive)
GI50 (KM-20L2): > 100 µM (inactive)
GI50 (M19-MEL): > 100 µM (inactive)
GI50 (HOP-18): > 100 µM (inactive)

CC1=CC(C)C(C)N(CCNC(=O)Nc2ccccc2)c2ccccc21 (configuration not stated)
GI50 (T47D): 21.3 µM (inactive)
GI50 (MDA-MB-435): 25.1 µM (inactive)
GI50 (MDA-MB-231): 13.3 µM (inactive)
GI50 (PC-3): 13.2 µM (inactive)

COc1cc(O)cc(/C=C/c2ccc(O)cc2)c1
GI50 (T47D): 44.7 µM (inactive)
GI50 (MDA-MB-435): 31.3 µM (inactive)
GI50 (MDA-MB-231): 16 µM (inactive)
GI50 (PC-3): 18 µM (inactive)

C=C(C)C(=O)O[C@H]1CC2=C[C@@H](C[C@@]3(C)O[C@@H]3[C@H]3OC(=O)C(=C)[C@@H]31)OC2=O [ELEPHANTOPIN]
GI50 (DMS-114): 4.47 µM (inactive)
GI50 (KM-20L2): 4.69 µM (inactive)
GI50 (M19-MEL): 2.49 µM (inactive)
GI50 (HOP-18): 4.33 µM (inactive)

COc1cc(O)c2c(c1)C(=O)c1cc(C)cc(O)c1C2=O [PHYSCION]
GI50 (DMS-114): > 100 µM (inactive)
GI50 (RXF 631): > 100 µM (inactive)
GI50 (KM-20L2): > 100 µM (inactive)
GI50 (M19-MEL): > 100 µM (inactive)
GI50 (HOP-18): 51.9 µM (inactive)
